Data reported in patent US20230201113A1, “IMMUNE BOOSTER - SUPPLEMENT TREATMENT KIT AND METHODS OF USE” (priority 2020, published 2023).

System: SARS-CoV-2
Assay type: in vivo
Conditions: of the 50 subjects in the control group

hydroxychloroquine [Placebo + hydroxychloroquine]
subjects resolved from positive to negative through PCR testing after ten days: 9 subjects
